Assays:
[1] = test system: Folsomia candida; settings: chronic/long-term; duration: 28 days; reproduction
[2] = test system: Tagia sp.; settings: chronic/long-term; duration: 56 days
[3] = test system: Landoltia sp.; settings: acute; duration: 7 days; other
[4] = test system: Lepomis macrochirus; settings: acute; duration: 96 hours; mortality
[5] = test system: Rattus norvegicus; settings: for LD50: acute, gavage, mortality
[6] = test system: Apis mellifera; settings: acute, duration: 48 hours, mortality
[7] = test system: Colinus virginianus; settings: oral
[8] = test system: Daphnia magna; settings: chronic/long-term; duration: 21 days; reproduction
[9] = test system: Oncorhynchus mykiss; settings: acute; duration: 96 hours; mortality
[10] = test system: Oryctolagus sp.; settings: reproduction developmental; clinical signs
[11] = test system: Pimephales promelas; settings: chronic/long-term; duration: 35 days; reproduction

Which results are given for CCCOc1nn(C(N)=O)c(=O)n1C?
NOEC [1]: 10 mg/kg; NOEC [2]: 316 mg/kg

Which results are given for CCCOc1nn(C(=O)NS(=O)(=O)c2ccccc2C(=O)O)c(=O)n1C?
NOEC [3]: 14.2 mg/L; LC50 [4]: > 87.7 µg/mL

With O=C1NS(=O)(=O)c2cccc(O)c21 [4-hydroxy-1H-1,2-benzisothiazole-1,1,3(2H)-trione] as the compound, how does the NOEC [1] read?
Its NOEC is 10 mg/kg.

What about the NOEC [2] of the same compound?
The NOEC was 5 mg/kg.

What does the source list for COC(=O)c1ccccc1S(=O)(=O)NC(=O)n1nc(OCC(C)O)n(C)c1=O (stereo not given) [Propoxycarbazone-2-hydroxypropoxy]?
LD50 ([5]; oral): > 5000 mg/kg-day; NOAEL ([5]; short-term, duration: 28 days, oral, diet): > 880 mg/kg-day

What does the source list for CCCOc1nn(C(=O)[N-]S(=O)(=O)c2ccccc2C(=O)OC)c(=O)n1C.[Na+] [Propoxycarbazone-sodium]?
LD50 ([6]; dermal): > 100 µg/piece; LD50 ([6]; oral, unspecified): > 110 µg/piece; LD50 ([7]; acute, mortality): > 2000 mg/kg-day; NOEL ([7]; reproduction developmental, duration: 25 weeks, diet, reproduction): 45 mg/kg-day; NOEC [8]: 13.8 mg/L; NOEC [1]: 500 mg/kg; LC50 [9]: > 77.2 µg/mL; NOAEL [10]: 100 mg/kg-day; NOEC [11]: 5.83 mg/L; LD50 ([5]; oral): > 5000 mg/kg-day; NOAEL ([5]; chronic, duration: 2 years, clinical chemistry): 43 mg/kg-day; NOEC [2]: 1.25 mg/kg

Source: EPA's ToxValDB 9.5 (doi:10.2903/j.efsa.2016.4612)
